Holding throughout (type): binding
Assay [1] concerns the target T1, sortase A (SrtA), WT-SrtA (Staphylococcus aureus, UniProt Q2FV99).
T1 construct: SrtA△N59, recombinant, GST tag cleaved
The assay is described as follows: fluorescence quenching (KA); also FRET inhibition of purified SrtA, IC50 […].

In assay [2] the target is T2, sortase A (SrtA), V168A-SrtA (Staphylococcus aureus, UniProt Q2FV99, V168A).
T2 construct: SrtA△N59, recombinant, GST tag cleaved
The assay is described as follows: fluorescence quenching (KA); reduced inhibition versus WT in FRET assay at […].

Assay [3] concerns the target T3, sortase A (SrtA), V166A-SrtA (Staphylococcus aureus, UniProt Q2FV99, V166A).
T3 construct: SrtA△N59, recombinant, GST tag cleaved
Described as above.

As a reminder, the Kd is the concentration at which binding is half-saturated. Low readings indicate higher affinity, high ones lower affinity. In the case of `CCCC(=O)c1c(O)c(CC2=C(O)C(C)(C)C(=O)C(C(C)=O)=C2O)c(O)c(Cc2c(O)c(CC3=C(O)C(C)(C)C(=O)C(C(C)=O)=C3O)c(O)c(C(=O)CCC)c2O)c1O` [ABBA, dryocrassin ABBA], the equilibrium dissociation constant (Kd) is 2180 nM in assay [1], 2790 nM in assay [2] and 2300 nM in assay [3].

Source of the values: paper PMC6273746, “Molecular Mechanism of the Flavonoid Natural Product Dryocrassin ABBA against Staphylococcus aureus Sortase A” (Molecules, 2016).
